In brackets after ≈: the same amount, converted by molar mass.
Legend:
[1] = Inhibition of SortaseA
[2] = Inhibition of Na+/K+-ATPase by fluorometric method
Isocitrate lyase = Isocitrate lyase (Candida albicans, UniProt Q9P8Q7); experiment: Inhibition of Candida albicans ATCC 10231 isocitrate lyase by spectrophotometric analysis
[3] = Cytotoxicity against human A549 cells after 48 hrs by MTT assay; type: cell-based; details: read-out: LC50
[4] = Cytotoxicity against human K562 cells after 48 hrs by MTT assay; type: cell-based; details: read-out: LC50
Escherichia coli = experiment: Antimicrobial activity against Escherichia coli ATCC 35270 after 24 hrs; type: functional; details: ATCC 35270, 24 h
Proteus hauseri = experiment: Antimicrobial activity against Proteus hauseri NBRC 3851 after 24 hrs; type: functional; details: NBRC 3851, 24 h
Salmonella enterica = experiment: Antimicrobial activity against Salmonella enterica ATCC 14028 after 24 hrs; type: functional; details: ATCC 14028, 24 h
Kocuria rhizophila = experiment: Antimicrobial activity against Kocuria rhizophila NBRC 12708 after 24 hrs; type: functional; details: NBRC 12708, 24 h
Bacillus spizizenii = experiment: Antimicrobial activity against Bacillus subtilis ATCC 6633 after 24 hrs; type: functional; details: ATCC 6633, 24 h
Staphylococcus aureus = experiment: Antimicrobial activity against Staphylococcus aureus ATCC 6538p after 24 hrs; type: functional

Sequence of Isocitrate lyase (Q9P8Q7 whole entry): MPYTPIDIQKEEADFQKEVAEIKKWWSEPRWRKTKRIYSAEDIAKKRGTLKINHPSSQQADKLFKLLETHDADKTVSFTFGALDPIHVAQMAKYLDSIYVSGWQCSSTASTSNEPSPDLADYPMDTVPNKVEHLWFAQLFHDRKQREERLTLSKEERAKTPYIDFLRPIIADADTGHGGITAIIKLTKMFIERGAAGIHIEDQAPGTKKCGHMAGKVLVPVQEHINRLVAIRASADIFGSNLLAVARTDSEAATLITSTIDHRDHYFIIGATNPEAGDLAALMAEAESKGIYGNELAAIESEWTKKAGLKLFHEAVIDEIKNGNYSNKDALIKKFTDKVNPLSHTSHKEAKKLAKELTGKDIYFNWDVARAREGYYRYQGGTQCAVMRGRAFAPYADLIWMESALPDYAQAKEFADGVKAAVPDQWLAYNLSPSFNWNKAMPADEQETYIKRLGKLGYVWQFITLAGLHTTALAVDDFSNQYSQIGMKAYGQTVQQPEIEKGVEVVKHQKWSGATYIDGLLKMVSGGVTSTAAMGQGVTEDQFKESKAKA

Row | Compound | IC50 [1] [µM] | IC50 [2] [µM] | IC50 (Isocitrate lyase) [µM] | CC50 at 48 h [3] [µM] | CC50 at 48 h [4] [µM] | MIC (Escherichia coli) [µg/mL] | MIC (Proteus hauseri) [µg/mL] | MIC (Salmonella enterica) [µg/mL] | MIC (Kocuria rhizophila) [µg/mL] | MIC (Bacillus spizizenii) [µg/mL] | MIC (Staphylococcus aureus) [µg/mL]
1 | Para-Hydroxymercuribenzoic acid | 106 | – | – | – | – | – | – | – | – | – | –
2 | COC(=O)C(C(=O)c1cc(Br)c(O)c(Br)c1)=C(C(=O)OC)c1ccc(O)c(Br)c1 | > 120 | 145 | 47.6 | > 100 | 49.7 | > 100 | > 100 | > 100 | > 100 | > 100 | > 100
3 | O=C(O)CC[N+](=O)[O-] | – | – | 53.9 | – | – | – | – | – | – | – | –
4 | O=C1O/C(=C\c2cc(Br)c(O)c(Br)c2)C(c2ccc(O)c(Br)c2)=C1C(=O)c1cc(Br)c(O)c(Br)c1 [CADIOLIDE E] | 78.8 | 2.5 | 8.9 | 40.4 | > 100 | > 100 | 3.1 (≈ 3.9 µM) | 1.6 (≈ 2.01 µM) | 0.8 (≈ 1.01 µM) | 1.6 (≈ 2.01 µM) | 3.1 (≈ 3.9 µM)
5 | COc1ccc(C=C2OC(=O)C([C@@H](O)c3cc(Br)c(OC)c(Br)c3)=C2c2cc(Br)c(O)c(Br)c2)cc1 | > 120 | 13.5 | > 100 | 38.5 | 50.8 | > 100 | 3.1 (≈ 4.16 µM) | 3.1 (≈ 4.16 µM) | 3.1 (≈ 4.16 µM) | 1.6 (≈ 2.14 µM) | 6.3 (≈ 8.44 µM)
6 | COc1cccc2c1C(=O)c1c(O)c3c(c(O)c1C2=O)C[C@@](O)(C(=O)CO)C[C@@H]3O[C@H]1C[C@H](N)[C@H](O)[C@H](C)O1 [DOXORUBICIN] | – | – | – | 1.7 | 4.7 | – | – | – | – | – | –
7 | COC(=O)C1=C(c2cc(Br)c(O)c(Br)c2)C(=O)OC1=C(c1cc(Br)c(O)c(Br)c1)c1cc(Br)c(O)c(Br)c1 [CADIOLIDE I] | > 120 | 5 | 10.8 | 52.7 | 51.2 | > 100 | 6.3 (≈ 6.97 µM) | 1.6 (≈ 1.77 µM) | 0.8 (≈ 0.885 µM) | 0.8 (≈ 0.885 µM) | 0.8 (≈ 0.885 µM)
8 | CC1(C)S[C@@H]2[C@H](NC(=O)[C@H](N)c3ccccc3)C(=O)N2[C@H]1C(=O)O [AMPICILLIN] | – | – | – | – | – | 6.3 (≈ 18 µM) | 1.6 (≈ 4.58 µM) | 0.4 (≈ 1.14 µM) | 0.4 (≈ 1.14 µM) | 0.4 (≈ 1.14 µM) | 0.4 (≈ 1.14 µM)
9 | COc1c(Br)cc([C@H](O)C2=C(c3ccc(O)c(Br)c3)/C(=C/c3ccc(O)c(Br)c3)OC2=O)cc1Br [CADIOLIDE G] | > 120 | 10.3 | 49.8 | > 100 | > 100 | > 100 | 3.1 (≈ 4.23 µM) | 0.8 (≈ 1.09 µM) | 3.1 (≈ 4.23 µM) | 12.5 (≈ 17.1 µM) | 3.1 (≈ 4.23 µM)
10 | C[C@@H]1O[C@@H](O[C@H]2C[C@@H](O)[C@]3(CO)[C@H]4[C@H](O)C[C@]5(C)[C@@H](C6=CC(=O)OC6)CC[C@]5(O)[C@@H]4CC[C@]3(O)C2)[C@H](O)[C@H](O)[C@H]1O [OUABAIN] | – | 5.8 | – | – | – | – | – | – | – | – | –
11 | COC(=O)C(C(=O)c1cc(Br)c(O)c(Br)c1)=C(C(=O)OC)c1cc(Br)c(O)c(Br)c1 | > 120 | 28 | 26.3 | 19.2 | 53.7 | > 100 | 100 (≈ 149 µM) | 50 (≈ 74.4 µM) | 100 (≈ 149 µM) | 50 (≈ 74.4 µM) | 100 (≈ 149 µM)

Reference: ChEMBL document CHEMBL2203252, “Brominated aromatic furanones and related esters from the ascidian Synoicum sp” (J Nat Prod, 2012)
